In ChEMBL document CHEMBL6134797, “Exploring 7β-amino-6-nitrocholestens as COVID-19 antivirals: in silico, synthesis, evaluation, and integration of artificial intelligence (AI) in drug design: assessing the cytotoxicity and antioxidant activity of 3β-acetoxynitrocholestane” (RSC Med Chem, 2024):
pIC50: −log10 of the molar value. In brackets after ≈: the same amount, converted by molar mass. Activity calls are given as the source filed them. The calls are words filed in the database; no cut-off is given here.

How the values were obtained:
[1] = Antioxidant activity assessed as DPPH radical scavenging activity at 10 ug/ml measured after 30 mins by UV-vis spectrophotometry relative to control; type: functional; conditions: dose 10.0 µg/ml
[2] = Antioxidant activity assessed as DPPH radical scavenging activity up to 10 ug/ml measured after 30 mins by UV-vis spectrophotometry; type: functional; conditions: dose <= 10.0 µg/ml
[3] = Antioxidant activity assessed as DPPH radical scavenging activity measured after 30 mins by UV-vis spectrophotometry; type: functional
HT-29 [4] = test: Cytotoxicity against human HT-29 cells assessed as reduction in cell viability measured after 24 hrs by MTT assay; type: functional, cell-based
SW-620 [5] = test: Cytotoxicity against human SW620 cells assessed as reduction in cell viability measured after 24 hrs by MTT assay; type: functional, cell-based
HT-29 [6] = test: Cytotoxicity against human HT-29 cells assessed as cell viability at 20 uM measured after 24 hrs by MTT assay relative to control; type: functional; conditions: read-out: Activity
SW-620 [7] = test: Cytotoxicity against human SW620 cells assessed as cell viability at 20 uM measured after 24 hrs by MTT assay relative to control; type: functional; conditions: read-out: Activity
[8] = Cytotoxicity against splenocytes (unknown origin) assessed as reduction in cell viability at 1.25 to 20 uM measured after 24 hrs by MTT assay; type: toxicity, cell-based; conditions: splenocyte, dose 1.25-20 µM

CCN(CC)[C@H]1C([N+](=O)[O-])=C2C=CCC[C@]2(C)[C@H]2CC[C@]3(C)[C@@H]([C@H](C)CCCC(C)C)CC[C@H]3[C@H]12
Activity [1]: 64.8%

CN[C@H]1C([N+](=O)[O-])=C2C=CCC[C@]2(C)[C@H]2CC[C@]3(C)[C@@H]([C@H](C)CCCC(C)C)CC[C@H]3[C@H]12
Activity [1]: 67.9%

CN[C@H]1C([N+](=O)[O-])=C2C=C(Cl)CC[C@]2(C)[C@H]2CC[C@]3(C)[C@@H]([C@H](C)CCCC(C)C)CC[C@H]3[C@H]12
Activity [1]: 66.5%

O=C1O[C@H]([C@@H](O)CO)C(O)=C1O
Activity [2]: Active

CN[C@H]1C([N+](=O)[O-])=C2C[C@@H](O)CC[C@]2(C)[C@H]2CC[C@]3(C)[C@@H]([C@H](C)CCCC(C)C)CC[C@H]3[C@H]12
Activity [1]: 51.2%

CC(C)CCC[C@@H](C)[C@H]1CC[C@H]2[C@@H]3[C@@H](N(C)C)C([N+](=O)[O-])=C4C=CCC[C@]4(C)[C@H]3CC[C@]12C
Activity [1]: 80.6%
IC50 [3]: 3.08 µg/mL (≈ 6.74 µM)

CC(=O)O[C@@H]1C=C2C([N+](=O)[O-])=C[C@H]3[C@@H]4CC[C@H]([C@H](C)CCCC(C)C)[C@@]4(C)CC[C@@H]3[C@@]2(C)CC1
Activity (HT-29 [4]): Dose-dependent-effect
pIC50 (HT-29 [4]; HT-29, 24 h): 4.94
Activity [1]: 86.2%
Activity (SW-620 [5]): Dose-dependent-effect
pIC50 (SW-620 [5]; SW-620, 24 h): 5.00
viability at 20 µM (HT-29 [6]): 10.8%
viability at 20 µM (SW-620 [7]): 15.2%
Activity [8]: Non-toxic
IC50 [3]: 2.78 µg/mL (≈ 5.89 µM)
